Several values for one entry are separate records, joined by “and”; a condition that tells them apart may be missing. Equal entries are not always repeated.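 Values below derive from 48-hour exposures of cells grown in 96-well plates, with endpoints linearly interpolated between the two concentrations bracketing the appropriate inhibition level. Abbreviation: GI50, concentration required for 50% inhibition of growth. Definition used: TGI = concentration required for complete inhibition of growth.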
How the values were obtained:
Assay in all cases: NCI tumour cell line growth inhibition, 48 h
[1] = system: DU-145 prostate
[2] = system: HOP-62 NSCLC
[3] = system: MALME-3M melanoma
[4] = system: OVCAR-5 ovarian
[5] = system: RXF 393 renal
[6] = system: UACC-257 melanoma
[7] = system: MDA-MB-435
[8] = system: CAKI-1 renal

| Compound | GI50 [1] | TGI [1] [µM] | GI50 [2] [µM] | TGI [2] [µM] | GI50 [3] | TGI [3] | GI50 [4] [µM] | TGI [4] | GI50 [5] [µM] | TGI [5] [µM] | GI50 [6] [µM] | TGI [6] | GI50 [7] [µM] | TGI [7] | GI50 [8] | TGI [8] |
| --- | --- | --- | --- | --- | --- | --- | --- | --- | --- | --- | --- | --- | --- | --- | --- | --- |
| COc1ccc(NC(=O)Nc2ccc(Nc3nc(C)cc(Nc4ccc(C)cc4)n3)cc2)cc1 | 1.16 µM | 2.59 | 1.58 | 3.05 | 1.83 µM | 3.58 µM | 1.72 | 3.22 µM | 1.61 | 3.12 | 1.89 | 3.69 µM |  |  |  |  |
| Cc1ccc(S(=O)(=O)NC(CCC(=O)Nc2ccccc2)C(=O)Nc2ccccc2)cc1 (configuration not stated) |  |  |  |  | 0.745 µM | 2.51 µM |  |  | 0.662 | 2.25 | 0.464 | 2.36 µM | 0.437 | 2.06 µM |  |  |
| COc1cc(-c2nc(SCC(=O)Nc3ccc(C(C)=O)cc3)[nH]c(=O)c2C#N)cc(OC)c1OC | 62.6 µM | > 100 | 79.3 | > 100 | 48.1 µM | > 100 µM | 85.1 | > 100 µM | 40.1 | > 100 | 97.4 | > 100 µM | 24.4 | 87.6 µM |  |  |
| O=C1/C(=C/c2ccc([N+](=O)[O-])s2)Oc2ccccc21 | 2.43 µM | 5.56 |  |  | 1.39 µM | 3.92 µM | 1.78 | 3.53 µM | 1.1 | 2.85 | 1.26 | 2.78 µM | 1.3 | 3.17 µM | 2.2 µM | 5.22 µM |
| Cc1[nH]nc2c1N=C(c1ccccc1F)c1cc(C#N)ccc1N2 | 3 µM | 12.8 | 0.899 | 8.85 | 14.7 µM | > 25 µM | 7.12 | 18.8 µM | 0.105 | 1.99 | 9.71 | > 25 µM |  |  | 0.051 µM | 5.66 µM |
| O=C(N=Nc1c(O)[nH]c2c(Cl)cc(Cl)cc12)c1ccncc1 |  |  |  | 88.3 |  | 32.7 µM |  | > 100 µM |  | 61.4 |  | 48.9 µM |  | 33.7 µM |  | 39 µM |
| CCOC(=O)C1=C(NC(C)(C)C)OCC1=O |  |  |  | > 100 |  | > 100 µM |  | > 100 µM |  |  |  | > 100 µM |  |  |  | > 100 µM |
| COc1ccc(OC)c(-c2cc(-c3ccccc3)nn2-c2ccc(S(N)(=O)=O)cc2)c1 | 15.6 µM | 29.5 |  |  |  |  | 15 | 28.8 µM |  |  | 15.2 | 31.6 µM | 6.73 | 24.8 µM | 14.8 µM | 32.8 µM |
| CCOC(=O)c1cc2cc(NC(=O)c3cc4cc([N+](=O)[O-])ccc4n3C)ccc2n1C |  |  | 19.7 | 35.3 |  |  | 21.7 | 61.9 µM | 41 | > 100 | 46.6 | > 100 µM | 60.9 | > 100 µM | 30.9 µM | > 100 µM |
| CC(C)c1cc(CNc2nc(Nc3cc(C4CC4)[nH]n3)cc(N3CCN(C)CC3)n2)on1 | 1.57 µM and 0.205 µM |  |  |  | 1.61 µM and 0.276 µM | > 10 µM and 2.96 µM |  | > 10 µM and 3.91 µM |  |  |  | > 10 µM and 5.53 µM |  | > 10 µM and 5.54 µM | 1.88 µM and 1.12 µM | > 10 µM and 4.09 µM |
| O=C(Nc1cccc(C(F)(F)F)c1)c1cccc(NC2=C(Cl)C(=O)N(Cc3ccccc3)C2=O)c1 | 37.2 µM | > 100 | 40.1 | > 100 |  |  | > 100 | > 100 µM | 2.39 | 9.29 | 12.4 | 38.5 µM | 8.69 | > 100 µM | 6.5 µM | > 100 µM |
| CN1CCN(Cc2ccc(NC(=O)c3[nH]ncc3Nc3ncnc4sccc34)cc2)CC1 | 0.35 µM | > 100 | 0.437 | > 100 |  |  | 0.508 | > 100 µM | 0.171 | 0.535 | 2.12 | > 100 µM | 0.394 | > 100 µM | 0.563 µM | > 100 µM |
| CCN(Cc1nc2cc(C(F)(F)F)ccc2nc1-c1ccccc1)c1ccc(OC)c(OC)c1 | 14.5 µM | 31.9 | 15.1 | 29.1 |  |  | 21.6 | 46 µM | 0.312 | 9.09 | 0.0249 | 0.793 µM | 16.4 | 32.4 µM | 17.4 µM | 64.2 µM |
| CN(C)CCOc1nc2c3cccnc3cc(-c3cccc(Cl)c3)c2c2ncccc12 | 1.84 µM | 4.26 | 1.43 | 3.26 |  |  | 1.5 | 4.02 µM | 1.39 | 2.8 | 1.89 | 3.6 µM | 1.5 | 2.93 µM | 1.1 µM | 2.92 µM |
| CC(C)=CCC/C(C)=C/CC/C(=C/COP(=O)(OCc1ccc([N+](=O)[O-])o1)N(C)CCCCCl)CC=C(C)C (configuration not stated) | 1.94 µM | 18.6 |  |  |  |  | 10.6 | 24.3 µM | 6.03 | 22.8 | 6.57 | 22.5 µM | 4.98 | 23.7 µM | 4.06 µM | 19.7 µM |

— PubChem BioAssay (NCI)
